Assay results reported in patent publication US12016852B2, “Pyrrolidine glycosidase inhibitors” (Asceneuron SA, priority 2018, dated 2024).

Target: T1, Human O-GlcNAcase (His-Tagged hOGA) (Homo sapiens, UniProt O60502)
T1 sequence (O60502 1-916): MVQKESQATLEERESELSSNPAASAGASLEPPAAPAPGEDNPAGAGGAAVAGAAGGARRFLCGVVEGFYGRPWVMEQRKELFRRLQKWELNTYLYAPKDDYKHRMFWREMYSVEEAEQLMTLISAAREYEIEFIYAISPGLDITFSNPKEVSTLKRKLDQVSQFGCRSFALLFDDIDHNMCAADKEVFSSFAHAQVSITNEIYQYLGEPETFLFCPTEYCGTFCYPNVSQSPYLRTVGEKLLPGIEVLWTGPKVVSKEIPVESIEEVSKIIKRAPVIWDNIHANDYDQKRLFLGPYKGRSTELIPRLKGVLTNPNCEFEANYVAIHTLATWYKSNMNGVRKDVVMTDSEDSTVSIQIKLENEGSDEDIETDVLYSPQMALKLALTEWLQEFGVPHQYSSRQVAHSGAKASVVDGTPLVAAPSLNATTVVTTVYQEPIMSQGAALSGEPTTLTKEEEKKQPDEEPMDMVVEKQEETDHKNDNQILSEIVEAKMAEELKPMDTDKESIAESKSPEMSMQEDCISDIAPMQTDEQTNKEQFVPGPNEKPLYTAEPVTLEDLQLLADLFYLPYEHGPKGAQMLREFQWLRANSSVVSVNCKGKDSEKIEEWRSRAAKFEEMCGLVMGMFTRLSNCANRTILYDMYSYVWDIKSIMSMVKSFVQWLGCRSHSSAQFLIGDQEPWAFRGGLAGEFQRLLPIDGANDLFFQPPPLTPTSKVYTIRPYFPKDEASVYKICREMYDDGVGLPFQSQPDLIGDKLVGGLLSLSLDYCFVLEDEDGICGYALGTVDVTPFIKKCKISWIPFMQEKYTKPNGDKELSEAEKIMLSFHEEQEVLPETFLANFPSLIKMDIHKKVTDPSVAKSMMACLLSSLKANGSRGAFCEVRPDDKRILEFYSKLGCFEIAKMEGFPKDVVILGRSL
Assay: Human O-GlcNAcase enzyme inhibition assay
Format: biochemical
Conditions: 20 nM His-Tagged hOGA, 10 μM FL-GlcNAc, McIlvaine's Buffer pH 6.5, 60 min at room temperature, fluorescence; read-out: OGA IC50
Protocol: Example B01: Human O-GlcNAcase Enzyme Inhibition Assay
5 μl of the appropriate concentration of a solution of inhibitor in Mcllvaine's Buffer (pH 6.5) in 2% DMSO (for a dose response curve calculation) is added into each well of a 384-well plate (Greiner, 781900). Then, 20 nM of His-Tagged hOGA and 10 μM of FL-GlcNAc (Fluorescein mono-beta-D-(2-deoxy-2-N-acetyl) glucopyranoside; Marker Gene Technologies Inc, M1485) were added to the 384-well plate for a final volume of 20 μl. After incubation for 60 min at room temperature, the reaction was terminated by the addition of 10 μL of stop buffer (200 mM glycine, pH 10.75). The level of fluorescence (λexc 485 nm; (λemm 520 nm) was read on a PHERAstar machine. The amount of fluorescence measured was plotted against the concentration of inhibitor to produce a sigmoidal dose response curve to calculate an IC50. All individual data was corrected by subtraction of the background (Thiamet 3 uM=100% inhibition) whilst 0.5% DMSO was considered as the control value (no inhibition).

| SMILES | IC50 |
| --- | --- |
| CS(=O)(=O)c1cccc(-c2ccc(CN3CCCC3c3ccc4c(c3)OCCO4)cc2)c1 (racemic) [Example 44, 2-(2,3-dihydrobenzo[b] [1,4]dioxin-6-yl)-1-((3′-(methylsulfonyl)-[1,1′-biphenyl]-4-yl)methyl)pyrrolidine] | 0.2 to 1 µM |
| c1cc(-c2ccc(CN3CCCC3c3ccc4c(c3)OCCO4)cc2)ccn1 (racemic) [Example 46, 4-(4-((2-(2,3-dihydrobenzo[b] [1,4]dioxin-6-yl)pyrrolidin-1-yl)methyl)phenyl)pyridine] | 0.2 to 1 µM |
| CC(=O)Nc1ncc(CN2CCCC2c2ccc3c(c2)OCCO3)s1 (racemic) [Example 50, N-(5-((2-(2,3-dihydrobenzo[b] [1,4]dioxin-6-yl)pyrrolidin-1-yl)methyl)thiazol-2-yl)acetamide] | 0.2 to 1 µM |
| Brc1cnn(-c2ccc(CN3CCCC3c3ccc4c(c3)OCCO4)cc2)c1 (racemic) [Example 51, 4-bromo-1-(4-((2-(2,3-dihydrobenzo[b] [1,4]dioxin-6-yl)pyrrolidin-1-yl)methyl)phenyl)-1H-pyrazole] | 0.05 to 0.2 µM |
| Cc1nn(C)c(C)c1-c1ccc(CN2CCCC2c2ccc3c(c2)OCCO3)cc1 (racemic) [Example 55, 4-(4-((2-(2,3-dihydrobenzo[b] [1,4]dioxin-6-yl)pyrrolidin-1-yl)methyl)phenyl)-1,3,5-trimethyl-1H-pyrazole] | 1 to 10 µM |
| Cc1cc(-c2cccnc2C)ccc1CN1CCCC1c1ccc2c(c1)OCCO2 (racemic) [Example 56, 3-(4-((2-(2,3-dihydrobenzo[b] [1,4]dioxin-6-yl)pyrrolidin-1-yl)methyl)-3-methylphenyl)-2-methylpyridine] | 0.2 to 1 µM |
| c1csc(-c2ccc(CN3CCCC3c3ccc4c(c3)OCCO4)cc2)n1 (racemic) [Example 58, 2-(4-((2-(2,3-dihydrobenzo[b] [1,4]dioxin-6-yl)pyrrolidin-1-yl)methyl)phenyl)thiazole] | 0.05 to 0.2 µM |
| Cc1cnc(-c2ccc(CN3CCCC3c3ccc4c(c3)OCCO4)cc2)s1 (racemic) [Example 59, 2-(4-((2-(2,3-dihydrobenzo[b] [1,4]dioxin-6-yl)pyrrolidin-1-yl)methyl)phenyl)-5-methylthiazole] | 0.2 to 1 µM |
| O=C1COCCN1c1ccc(CN2CCCC2c2ccc3c(c2)OCCO3)cc1 (racemic) [Example 61, 4-(4-((2-(2,3-dihydrobenzo[b] [1,4]dioxin-6-yl)pyrrolidin-1-yl)methyl)phenyl) morpholin-3-one] | 0.2 to 1 µM |
| O=C1CCCCN1c1ccc(CN2CCCC2c2ccc3c(c2)OCCO3)cc1 (racemic) [Example 62, 1-(4-((2-(2,3-dihydrobenzo[b] [1,4]dioxin-6-yl)pyrrolidin-1-yl)methyl)phenyl)piperidin-2-one] | 0.2 to 1 µM |
| c1cnc(-c2ccc(CN3CCCC3c3ccc4c(c3)OCCO4)cc2)cn1 (racemic) [Example 64, 2-(4-((2-(2,3-dihydrobenzo[b] [1,4]dioxin-6-yl)pyrrolidin-1-yl)methyl)phenyl)pyrazine] | 0.05 to 0.2 µM |
| O=C1CSCCN1c1ccc(CN2CCCC2c2ccc3c(c2)OCCO3)cc1 (racemic) [Example 67, 4-(4-((2-(2,3-dihydrobenzo[b] [1,4]dioxin-6-yl)pyrrolidin-1-yl)methyl)phenyl)thiomorpholin-3-one] | 0.2 to 1 µM |
| Cc1csc(-c2ccc(CN3CCCC3c3ccc4c(c3)OCCO4)cc2)n1 (racemic) [Example 68, 2-(4-((2-(2,3-dihydrobenzo[b] [1,4]dioxin-6-yl)pyrrolidin-1-yl)methyl)phenyl)-4-methylthiazole] | 0.2 to 1 µM |
| c1cnc(-c2ccc(CN3CCCC3c3ccc4c(c3)OCCO4)cc2)nc1 (racemic) [Example 69, 2-(4-((2-(2,3-dihydrobenzo[b] [1,4]dioxin-6-yl)pyrrolidin-1-yl)methyl)phenyl) pyrimidine] | 0.05 to 0.2 µM |
| Cc1cnccc1-c1ccc(CN2CCCC2c2ccc3c(c2)OCCO3)cc1C (racemic) [Example 70, 4-(4-((2-(2,3-dihydrobenzo[b] [1,4]dioxin-6-yl)pyrrolidin-1-yl)methyl)-2-methylphenyl)-3-methylpyridine] | 1 to 10 µM |
| Cc1cc(CN2CCCC2c2ccc3c(c2)OCCO3)ccc1-c1cccnc1C (racemic) [Example 71, 3-(4-((2-(2,3-dihydrobenzo[b] [1,4]dioxin-6-yl)pyrrolidin-1-yl)methyl)-2-methylphenyl)-2-methylpyridine] | 0.2 to 1 µM |
| Cn1cc(-c2ccc(CN3CCCC3c3ccc4c(c3)OCO4)cc2)cn1 (racemic) [Example 72, 4-(4-((2-(benzo[d] [1,3]dioxol-5-yl)pyrrolidin-1-yl)methyl)phenyl)-1-methyl-1H-pyrazole] | 0.2 to 1 µM |
| O=c1[nH]nc(-c2ccc(CN3CCCC3c3ccc4c(c3)OCCO4)cc2)o1 (racemic) [Example 76, 5-(4-((2-(2,3-dihydrobenzo[b] [1,4]dioxin-6-yl)pyrrolidin-1-yl)methyl)phenyl)-1,3,4-oxadiazol-2(3H)-one] | 0.2 to 1 µM |
| c1cnnc(-c2ccc(CN3CCCC3c3ccc4c(c3)OCCO4)cc2)c1 (racemic) [Example 144] | 0.05 to 0.2 µM |

Further lines, results first:

| IC50 | SMILES |
| --- | --- |
| 1 to 10 µM | Clc1cc(-c2ccccn2)ccc1CN1CCCC1c1ccc2c(c1)OCCO2 (racemic) [Example 43, (3-chloro-4-((2-(2,3-dihydrobenzo[b] [1,4]dioxin-6-yl)pyrrolidin-1-yl)methyl)phenyl) pyridine] |
| 0.05 to 0.2 µM | Cc1cc(-c2cnn(C)c2)ccc1CN1CCCC1c1ccc2c(c1)OCCO2 (racemic) [Example 45, 4-(4-((2-(2,3-dihydrobenzo[b] [1,4]dioxin-6-yl)pyrrolidin-1-yl)methyl)-3-methylphenyl)-1-methyl-1H-pyrazole] |
| 0.2 to 1 µM | Cc1cc(-c2ccncc2)ccc1CN1CCCC1c1ccc2c(c1)OCCO2 (racemic) [Example 49, 4-(4-((2-(2,3-dihydrobenzo[b] [1,4]dioxin-6-yl)pyrrolidin-1-yl)methyl)-3-methylphenyl)pyridine] |
| 0.05 to 0.2 µM | N#Cc1cnn(-c2ccc(CN3CCCC3c3ccc4c(c3)OCCO4)cc2)c1 (racemic) [Example 52, 1-(4-((2-(2,3-dihydrobenzo[b] [1,4]dioxin-6-yl)pyrrolidin-1-yl)methyl)phenyl)-1H-pyrazole-4-carbonitrile] |
| 1 to 10 µM | Cc1noc(C)c1-c1ccc(CN2CCCC2c2ccc3c(c2)OCCO3)cc1 (racemic) [Example 54, 4-(4-((2-(2,3-dihydrobenzo[b] [1,4]dioxin-6-yl)pyrrolidin-1-yl)methyl)phenyl)-3,5-dimethylisoxazole] |
| 0.2 to 1 µM | Cc1cc(-c2ccncc2C)ccc1CN1CCCC1c1ccc2c(c1)OCCO2 (racemic) [Example 57, 4-(4-((2-(2,3-dihydrobenzo[b] [1,4]dioxin-6-yl)pyrrolidin-1-yl)methyl)-3-methylphenyl)-3-methylpyridine] |
| 0.05 to 0.2 µM | N#Cc1cnc(-c2ccc(CN3CCCC3c3ccc4c(c3)OCCO4)cc2)s1 (racemic) [Example 60, 2-(4-((2-(2,3-dihydrobenzo[b] [1,4]dioxin-6-yl)pyrrolidin-1-yl)methyl)phenyl)thiazole-5-carbonitrile] |
| 0.05 to 0.2 µM | CS(=O)(=O)c1cncc(-c2ccc(CN3CCCC3c3ccc4c(c3)OCCO4)cc2)c1 (racemic) [Example 63, 3-(4-((2-(2,3-dihydrobenzo[b] [1,4]dioxin-6-yl)pyrrolidin-1-yl)methyl)phenyl)-5-(methylsulfonyl)pyridine] |
| 1 to 10 µM | CS(=O)(=O)CCOc1ccc(CN2CCCC2c2ccc3c(c2)OCCO3)cc1 (racemic) [Example 65, 2-(2,3-dihydrobenzo[b] [1,4]dioxin-6-yl)-1-(4-(2-(methylsulfonyl)ethoxy)benzyl)pyrrolidine] |
| 0.2 to 1 µM | O=S1(=O)CCN(c2ccc(CN3CCCC3c3ccc4c(c3)OCCO4)cc2)CC1 (racemic) [Example 66, 4-(4-((2-(2,3-dihydrobenzo[b] [1,4]dioxin-6-yl)pyrrolidin-1-yl)methyl)phenyl)thiomorpholine 1,1-dioxide] |
| 1 to 10 µM | CN1CCN(c2ccc(CN3CCCC3c3ccc4c(c3)OCCO4)cc2)CC1 (racemic) [Example 146] |
